Test results from US11083725B2 (priority 2014, dated 2021).

Tested on: NHBE cells
Test: Biolog metabolic array: substrate use by NHBE cells with or without CA09 infection
Assay type: cell-based, human
Details: for Substrate use, 590 nm absorbance normalized to zero hour, 1 hr: Biolog PMM2, 1 hr; for Substrate use, 590 nm absorbance normalized to zero hour, 5 hr: Biolog PMM2, 5 hr; for Substrate use, 590 nm absorbance normalized to zero hour, 7 hr: Biolog PMM2, 7 hr
[1] = Control (uninfected) NHBE cells
[2] = Virus (CA09-infected, MOI 1) NHBE cells
[3] = Virus: CA09-infected NHBE cells, MOI 1, Biolog PMM2
[4] = Virus (CA09-infected NHBE cells, MOI 1)

OC[C@@H](O)[C@@H](O)[C@H](O)[C@H](O)CO [D-Mannitol]
590 nm absorbance normalized to zero hour (substrate use), 1 hr [1]: 0.96
590 nm absorbance normalized to zero hour (substrate use), 2 hr [1]: 0.94
590 nm absorbance normalized to zero hour (substrate use), 3 hr [1]: 1.00
590 nm absorbance normalized to zero hour (substrate use), 4 hr [1]: 0.99
590 nm absorbance normalized to zero hour (substrate use), 6 hr [1]: 0.34
590 nm absorbance normalized to zero hour (substrate use), 8 hr [1]: 0.74
590 nm absorbance normalized to zero hour (substrate use), 9 hr [1]: 0.79
590 nm absorbance normalized to zero hour (substrate use), 10 hr [1]: 0.74
590 nm absorbance normalized to zero hour (substrate use), 11 hr [1]: 0.64
Substrate use, 590 nm absorbance normalized to zero hour, 1 hr [1]: 0.96
Substrate use, 590 nm absorbance normalized to zero hour, 5 hr [1]: 0.91
Substrate use, 590 nm absorbance normalized to zero hour, 7 hr [1]: 0.81
590 nm absorbance normalized to zero hour (substrate use), 1 hr [2]: 0.20
590 nm absorbance normalized to zero hour (substrate use), 2 hr [2]: 0.27
590 nm absorbance normalized to zero hour (substrate use), 3 hr [2]: 0.32
590 nm absorbance normalized to zero hour (substrate use), 4 hr [2]: 0.34
590 nm absorbance normalized to zero hour (substrate use), 5 hr [2]: 0.40
590 nm absorbance normalized to zero hour (substrate use), 6 hr [2]: 0.42
590 nm absorbance normalized to zero hour (substrate use), 7 hr [2]: 0.44
590 nm absorbance normalized to zero hour (substrate use), 8 hr [2]: 0.47
590 nm absorbance normalized to zero hour (substrate use), 9 hr [2]: 0.52
590 nm absorbance normalized to zero hour (substrate use), 10 hr [2]: 0.53
590 nm absorbance normalized to zero hour (substrate use), 11 hr [2]: 0.57
590 nm absorbance normalized to zero hour (substrate use), 1 hr [3]: 0.20
590 nm absorbance normalized to zero hour (substrate use), 2 hr [3]: 0.27
590 nm absorbance normalized to zero hour (substrate use), 3 hr [3]: 0.32
590 nm absorbance normalized to zero hour (substrate use), 4 hr [3]: 0.34
590 nm absorbance normalized to zero hour (substrate use), 5 hr [3]: 0.40
590 nm absorbance normalized to zero hour (substrate use), 6 hr [3]: 0.42
590 nm absorbance normalized to zero hour (substrate use), 7 hr [3]: 0.44
590 nm absorbance normalized to zero hour (substrate use), 8 hr [3]: 0.47
590 nm absorbance normalized to zero hour (substrate use), 9 hr [3]: 0.52
590 nm absorbance normalized to zero hour (substrate use), 10 hr [3]: 0.53
590 nm absorbance normalized to zero hour (substrate use), 11 hr [3]: 0.57

O=C(O)CCCO [g-Hydroxy-Butyric Acid]
590 nm absorbance normalized to zero hour (substrate use), 0 hr [1]: 1.00
590 nm absorbance normalized to zero hour (substrate use), 1 hr [1]: 1.24
590 nm absorbance normalized to zero hour (substrate use), 2 hr [1]: 1.38
590 nm absorbance normalized to zero hour (substrate use), 3 hr [1]: 1.92
590 nm absorbance normalized to zero hour (substrate use), 4 hr [1]: 1.86
590 nm absorbance normalized to zero hour (substrate use), 6 hr [1]: 0.79
590 nm absorbance normalized to zero hour (substrate use), 8 hr [1]: 1.94
590 nm absorbance normalized to zero hour (substrate use), 9 hr [1]: 2.09
590 nm absorbance normalized to zero hour (substrate use), 10 hr [1]: 2.05
590 nm absorbance normalized to zero hour (substrate use), 11 hr [1]: 2.76
Substrate use, 590 nm absorbance normalized to zero hour, 0 hr (Control (uninfected) NHBE cells, Biolog PMM2, 0 hr): 1.00
Substrate use, 590 nm absorbance normalized to zero hour, 1 hr [1]: 1.24
Substrate use, 590 nm absorbance normalized to zero hour, 5 hr [1]: 1.71
Substrate use, 590 nm absorbance normalized to zero hour, 7 hr [1]: 1.88
590 nm absorbance normalized to zero hour (substrate use), 0 hr [4]: 1.00
590 nm absorbance normalized to zero hour (substrate use), 1 hr [4]: 0.53
590 nm absorbance normalized to zero hour (substrate use), 2 hr [4]: 0.53
590 nm absorbance normalized to zero hour (substrate use), 3 hr [4]: 0.41
590 nm absorbance normalized to zero hour (substrate use), 4 hr [4]: 0.44
590 nm absorbance normalized to zero hour (substrate use), 5 hr [4]: 0.50
590 nm absorbance normalized to zero hour (substrate use), 6 hr [4]: 0.54
590 nm absorbance normalized to zero hour (substrate use), 7 hr [4]: 0.56
590 nm absorbance normalized to zero hour (substrate use), 8 hr [4]: 0.59
590 nm absorbance normalized to zero hour (substrate use), 9 hr [4]: 0.62
590 nm absorbance normalized to zero hour (substrate use), 10 hr [4]: 0.63
590 nm absorbance normalized to zero hour (substrate use), 11 hr [4]: 0.53
590 nm absorbance normalized to zero hour (substrate use), 0 hr [3]: 1.00
590 nm absorbance normalized to zero hour (substrate use), 1 hr [3]: 0.53
590 nm absorbance normalized to zero hour (substrate use), 2 hr [3]: 0.53
590 nm absorbance normalized to zero hour (substrate use), 3 hr [3]: 0.41
590 nm absorbance normalized to zero hour (substrate use), 4 hr [3]: 0.44
590 nm absorbance normalized to zero hour (substrate use), 5 hr [3]: 0.50
590 nm absorbance normalized to zero hour (substrate use), 6 hr [3]: 0.54
590 nm absorbance normalized to zero hour (substrate use), 7 hr [3]: 0.56
590 nm absorbance normalized to zero hour (substrate use), 8 hr [3]: 0.59
590 nm absorbance normalized to zero hour (substrate use), 9 hr [3]: 0.62
590 nm absorbance normalized to zero hour (substrate use), 10 hr [3]: 0.63
590 nm absorbance normalized to zero hour (substrate use), 11 hr [3]: 0.53

OC[C@H]1O[C@@H](OC[C@H]2OC(O)[C@H](O)[C@@H](O)[C@@H]2O)[C@H](O)[C@@H](O)[C@@H]1O (stereo partly shown) [Gentio-biose]
590 nm absorbance normalized to zero hour (substrate use), 1 hr [1]: 1.71
590 nm absorbance normalized to zero hour (substrate use), 2 hr [1]: 2.34
590 nm absorbance normalized to zero hour (substrate use), 3 hr [1]: 2.83
590 nm absorbance normalized to zero hour (substrate use), 4 hr [1]: 3.01
590 nm absorbance normalized to zero hour (substrate use), 6 hr [1]: 4.46
590 nm absorbance normalized to zero hour (substrate use), 8 hr [1]: 4.57
590 nm absorbance normalized to zero hour (substrate use), 9 hr [1]: 5.20
590 nm absorbance normalized to zero hour (substrate use), 10 hr [1]: 5.59
590 nm absorbance normalized to zero hour (substrate use), 11 hr [1]: 5.94
Substrate use, 590 nm absorbance normalized to zero hour, 1 hr [1]: 1.71
Substrate use, 590 nm absorbance normalized to zero hour, 5 hr [1]: 3.72
Substrate use, 590 nm absorbance normalized to zero hour, 7 hr [1]: 4.35
590 nm absorbance normalized to zero hour (substrate use), 1 hr [4]: 1.23
590 nm absorbance normalized to zero hour (substrate use), 2 hr [4]: 1.38
590 nm absorbance normalized to zero hour (substrate use), 3 hr [4]: 1.44
590 nm absorbance normalized to zero hour (substrate use), 4 hr [4]: 1.47
590 nm absorbance normalized to zero hour (substrate use), 5 hr [4]: 1.55
590 nm absorbance normalized to zero hour (substrate use), 6 hr [4]: 1.62
590 nm absorbance normalized to zero hour (substrate use), 7 hr [4]: 1.66
590 nm absorbance normalized to zero hour (substrate use), 8 hr [4]: 1.72
590 nm absorbance normalized to zero hour (substrate use), 9 hr [4]: 1.79
590 nm absorbance normalized to zero hour (substrate use), 10 hr [4]: 1.85
590 nm absorbance normalized to zero hour (substrate use), 11 hr [4]: 1.99
590 nm absorbance normalized to zero hour (substrate use), 1 hr [3]: 1.23
590 nm absorbance normalized to zero hour (substrate use), 2 hr [3]: 1.38
590 nm absorbance normalized to zero hour (substrate use), 3 hr [3]: 1.44
590 nm absorbance normalized to zero hour (substrate use), 4 hr [3]: 1.47
590 nm absorbance normalized to zero hour (substrate use), 5 hr [3]: 1.55
590 nm absorbance normalized to zero hour (substrate use), 6 hr [3]: 1.62
590 nm absorbance normalized to zero hour (substrate use), 7 hr [3]: 1.66
590 nm absorbance normalized to zero hour (substrate use), 8 hr [3]: 1.72
590 nm absorbance normalized to zero hour (substrate use), 9 hr [3]: 1.79
590 nm absorbance normalized to zero hour (substrate use), 10 hr [3]: 1.85
590 nm absorbance normalized to zero hour (substrate use), 11 hr [3]: 1.99
